Experimental data as given in patent US10782295B2, “Cysteine-reactive ligand discovery in proteomes” (THE SCRIPPS RESEARCH INSTITUTE, priority 2013, dated 2020).

How the values were obtained:
MMS19 = molecular target: T1, MMS19 (Homo sapiens, UniProt Q96T76); assay: competitive isoTOP-ABPP, MDA-MB-231 soluble proteome; type: binding; settings: 60 min; for R value (isoTOP-ABPP ratio heavy/light) for IA-labeled cysteine of MMS19: 100 μM LDE, peptide LMGLLSDPELGPAAADGFSLLMSDC*TDVLTR
T1 construct: directly in native proteomes; endogenous in cells; host or cells: MDA-MB-231
T1 sequence (Q96T76 1-1030): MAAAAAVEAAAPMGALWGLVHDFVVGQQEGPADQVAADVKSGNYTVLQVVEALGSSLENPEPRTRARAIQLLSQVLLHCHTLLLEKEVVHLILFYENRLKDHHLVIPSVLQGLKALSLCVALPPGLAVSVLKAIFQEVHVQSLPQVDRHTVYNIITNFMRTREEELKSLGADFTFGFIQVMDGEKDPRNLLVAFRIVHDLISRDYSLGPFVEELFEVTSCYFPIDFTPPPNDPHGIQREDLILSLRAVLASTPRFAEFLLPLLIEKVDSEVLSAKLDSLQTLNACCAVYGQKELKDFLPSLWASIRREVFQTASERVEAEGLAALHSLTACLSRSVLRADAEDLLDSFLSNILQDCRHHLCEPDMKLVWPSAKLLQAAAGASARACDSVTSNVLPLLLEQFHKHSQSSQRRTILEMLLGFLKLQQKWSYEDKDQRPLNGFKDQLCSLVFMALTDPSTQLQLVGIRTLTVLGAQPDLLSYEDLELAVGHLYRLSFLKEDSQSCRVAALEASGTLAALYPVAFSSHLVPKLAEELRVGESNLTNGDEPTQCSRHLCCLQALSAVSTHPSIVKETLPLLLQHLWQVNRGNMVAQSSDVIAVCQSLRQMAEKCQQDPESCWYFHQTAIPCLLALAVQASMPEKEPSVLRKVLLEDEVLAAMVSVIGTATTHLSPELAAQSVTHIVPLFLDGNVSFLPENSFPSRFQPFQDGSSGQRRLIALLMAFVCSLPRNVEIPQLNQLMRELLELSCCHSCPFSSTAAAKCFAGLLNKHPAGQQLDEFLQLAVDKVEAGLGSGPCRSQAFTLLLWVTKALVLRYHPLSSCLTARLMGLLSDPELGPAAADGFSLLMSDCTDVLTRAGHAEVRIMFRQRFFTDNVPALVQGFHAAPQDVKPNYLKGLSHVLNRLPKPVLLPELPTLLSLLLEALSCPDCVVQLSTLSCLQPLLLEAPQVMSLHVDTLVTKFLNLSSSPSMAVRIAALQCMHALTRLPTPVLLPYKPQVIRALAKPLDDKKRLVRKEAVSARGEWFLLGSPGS
Method: (§1) Here, we envisioned that isoTOP-ABPP could be advanced to discover and quantify reactions between cysteines in proteomes and any electrophilic compound. In this advanced, ‘competitive’ version of isoTOP-ABPP (FIG. 1a), a proteome is treated with an electrophile (experimental sample) or DMSO (control sample). Both proteomic samples are then labeled with the IA probe and conjugated by CuAAC to light and heavy azide-biotin tags, respectively. The light and heavy samples are then mixed and subjected to our described isoTOP-ABPP protocol for enrichment, identification, and quantification of IA-labeled cysteines^30. Electrophile-modified cysteines are quantified by measuring the MS1 chromatographic peak ratios (R values) for heavy (DMSO-treated) over light (electrophile-treated) samples, with higher R values reflecting greater sensitivity to the electrophile. In this format, competitive isoTOP-ABPP can assay electrophiles against 1000+ cysteines in parallel directly in native proteomes without requiring any chemical modification to the electrophiles themselves.
(§2) Competitive isoTOP-ABPP experiments were performed in quadruplicate using the soluble proteome of the human breast cancer cell line MDA-MB-231 cell line. Proteomes were treated with 100 μM HNE, 15d-PGJ2, or 2-HD, for 60 minutes, followed by the IA-probe (100 μM, 60 min) A total of ˜1400 cysteine reactivities were quantified across the aggregate data set, with at least 900 cysteine reactivities quantified for each LDE (FIG. 2a) more than 750 of which were quantified for all the three electrophiles.
(§3) HNE was purchased from EMD biosciences, 15d-PGJ2 was purchased from Cayman Chemicals and 2-HD was purchased from Santa Cruz Biotechnology. Proteome samples were diluted to a 4 mg protein/mL solution in PBS. For each profiling experiment, one aliquot of the proteome sample (0.5 mL) was treated with 100 μM of LDE using 5 μL of a 10 mM stock and the other aliquot was treated with 5 μL of either ethanol (for HNE and 15d-PGJ2) or DMSO (for 2-HD) as control. For the concentration-dependent profiling experiments using HNE, aliquots of the proteomes (0.5 mL each) were treated with 5, 10, 50, 100 and 500 μM of HNE using 5 μL of 0.5, 1.0, 5, 10 and 50 mM of stock solution, respectively. After 60 minutes of treatment at room temperature, both the LDE-treated and control aliquots were passed through a NAP-5 Sephadex column (GE healthcare) to remove any unreacted LDE. The volume of each aliquot was increased to 1 mL with the concentration at 2 mg/mL after this step.
(§4) Each of the control and LDE-treated proteome samples (˜2 mg protein/mL in 1 mL volume) was treated with 100 μM of IA-probe using 10 μL of a 10 mM stock in DMSO. The labeling reactions were incubated at room temperature for 1 hour. Click chemistry (acetylene-azide cycloaddition) was performed by the addition of 100 μM of either the Heavy-TEV-Tag (for the control sample) or Light-TEV-Tag (for the LDE-treated sample) (20 μL of a 5 mM stock), 1 mM TCEP (fresh 50× stock in water), 100 μM ligand (17× stock in DMSO:t-Butanol 1:4) and 1 mM CuSO4 (50× stock in water). Samples were allowed to react at room temperature for 1 hour. After the click chemistry step, the light and heavy-labeled samples were mixed together and centrifuged (5900×g, 4 min, 4° C.) to pellet the precipitated proteins.
(§5) The pellets were washed twice in cold MeOH, after which the pellet was solubilized in PBS containing 1.2% SDS via sonication and heating (5 min, 80° C.). Samples were subjected to streptavidin enrichment of probe-labeled proteins, sequential on-bead trypsin and TEV digestion, and liquid chromatography-mass spectrometry (LC-MS) analysis according to the published isoTOP-ABPP protocol^30.
(§6) IA-probe labeled peptides were identified by SEQUEST2 and DTASelect3, and the quantification of heavy/light ratios (isoTOP-ABPP ratios, R) was performed by an in-house software (CIMAGE) as previously described. […]

DYNC1L11 = molecular target: T2, DYNC1L11 (Homo sapiens, UniProt Q9Y6G9); assay: as above; type: binding; settings: 100 μM LDE, 60 min; peptide SEQ ID NO: 25 (...NLWSC*ILSEVSTR)
T2 construct: directly in native proteomes; endogenous in cells; host or cells: MDA-MB-231
T2 sequence (Q9Y6G9 whole entry): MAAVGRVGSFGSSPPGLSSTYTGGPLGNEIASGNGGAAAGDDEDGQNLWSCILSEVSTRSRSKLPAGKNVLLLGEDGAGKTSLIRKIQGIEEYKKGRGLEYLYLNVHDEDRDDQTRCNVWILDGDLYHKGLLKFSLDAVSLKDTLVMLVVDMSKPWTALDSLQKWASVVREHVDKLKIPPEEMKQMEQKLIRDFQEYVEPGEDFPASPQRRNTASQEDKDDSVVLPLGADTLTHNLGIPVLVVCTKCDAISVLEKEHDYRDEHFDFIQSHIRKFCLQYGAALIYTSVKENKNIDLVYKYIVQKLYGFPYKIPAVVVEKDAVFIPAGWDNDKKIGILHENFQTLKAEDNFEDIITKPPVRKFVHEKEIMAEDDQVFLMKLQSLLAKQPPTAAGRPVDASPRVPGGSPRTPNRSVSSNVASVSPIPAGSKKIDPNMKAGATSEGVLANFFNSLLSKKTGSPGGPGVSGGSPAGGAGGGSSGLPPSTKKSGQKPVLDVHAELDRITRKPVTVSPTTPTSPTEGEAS
Method: as §1, §2, §3, §4, §5, §6

| SMILES | R value (isoTOP-ABPP ratio heavy/light) for IA-labeled cysteine of MMS19 (MMS19) | R value (isoTOP-ABPP ratio heavy/light) for IA-labeled cysteine of DYNC1L11 (DYNC1L11) | blockade of IA-probe labeling of Cys848 of MMS19 (MMS19; 100 μM) |
| --- | --- | --- | --- |
| CCCCCCCCCCCCC/C=C/C=O [2-HD, 2-trans-hexadecenal] | 1.1 | 1.1 | – |
| CCCCCC(O)/C=C/C=O (stereo not shown) [4-HNE, 4-Hydroxynonenal] | 1.78 | 2.59 | – |
| CCCCC/C=C/C=C1/C(=O)C=C[C@@H]1C/C=C\CCCC(=O)O [PGJ2, 15-deoxy-Δ12,14-prostaglandin J2] | >15 | 5.18 | completely blocked |
